# What was measured:
# [1] = test system: mice (strain 129SV); test: Serum IFNα by ELISA 24 hours post LNP injection; assay type: in vivo, mouse; details: 24 hours post i.v. LNP injection, in a dose-dependent manner (oligo 20% or 6.7% mass), compared to PpLuc mRNA only (FIG. 4B)
# Experimental: For preparation of Lipid nanoparticles (LNP) containing both PpLuc mRNA and 2-O-methylated oligonucleotide, first the 2′-O-methylated oligonucleotide was added to PpLuc mRNA at a weight percentage of either 20% or 6.7% (see Table 3). LNP containing PpLuc mRNA either with or without admixture of 2-O-methylated oligonucleotide were prepared using cationic lipid, cholesterol, PEG-lipid and a neutral lipid. The mRNA was diluted to 1 g/L in citrate buffer, pH 4. The ethanolic lipid solution was mixed with the aqueous RNA solution at a ratio of 1:3 (vol/vol) using a Nanoassemblr (PrecisionNanoSystems). The ethanol was then removed and the buffer replaced by 10 mM HEPES, pH 7.4 comprising 9% Sucrose by dialysis. […] To analyse the influence of the 2′-O-methylated oligonucleotide on immunostimulation, the concentrations of IFNγ, TNFα, IL-6, MIP-1β, RANTES, and MCP1 were measured in sera from blood collected 6 hours post LNP injection by Cytometric Bead Array (CBA), performed as described in paragraph 2.3. […] To further assess the influence of the 2′-O-methylated oligonucleotide on immunostimulation, the concentration of IFNα was measured in sera from blood collected 24 hours post LNP injection by ELISA.
# [2] = test system: human peripheral blood mononuclear cells (PBMCs); test: PBMC stimulation: DOTAP co-transfection of capped PpLuc mRNA with oligonucleotide, cytokines by CBA; assay type: cell-based; details: DOTAP co-transfection with capped PpLuc mRNA 1 μg/ml, oligonucleotide 0.25 μg/ml (25% weight), supernatant 24 hours, compared to PpLuc mRNA only (FIG. 1B)
# Experimental: Human peripheral blood mononuclear cells (PBMCs) were isolated from heparinized blood of healthy volunteers by standard Ficoll-Hypaque density gradient centrifugation (Ficoll 1.078 g/ml). PBMCs were re-suspended in RPMI 1640 supplemented with 10% heat-inactivated FCS. After counting, cells are re-suspended at 50 million cells per ml in fetal calf serum, 10% DMSO, and frozen. Before usage, the cells are thawed.
# For transfection experiments, 2×10^5 human PBMCs per well were seeded into each well of a 96-well plate in X-Vivo 15 medium (Lonza). For preparation of DOTAP complexes containing both immunostimulatory non-coding RNA and a 2′-O-methylated oligonucleotide (SEQ ID NO: 85), the oligonucleotide was first added to immunostimulatory non-coding RNA at a weight percentage of 25%. For preparation of DOTAP complexes containing both PpLuc mRNA and a 2′-O-methylated oligonucleotide, the oligonucleotide was first added to PpLuc mRNA at a weight percentage of 25%. The molar ratio of PpLuc mRNA to oligonucleotide was thus […] (MW (Oligonucleotide)=2907 g/mol, MW (PpLuc mRNA)=652377 g/mol). DOTAP complexes containing either immunostimulatory non-coding RNA or PpLuc mRNA without or with oligonucleotide were formed at a ratio of 3 μl of DOTAP per 1 μg of RNAdjuvant or 1 μg of mRNA. […] To quantify background stimulation, PBMC were incubated either with DOTAP alone (“vehicle”) or medium only. […]
# In supernatants collected from PBMC stimulated without or with 2-O-methylated oligonucleotide, the concentrations of IFN-α, IFN-γ, TNF, were measured by Cytometric Bead Array (CBA) according to the manufacturer's instructions (BD Biosciences) using the following kits: Human Soluble Protein Master Buffer Kit (catalog no. 558264), Assay Diluent (catalog no. 560104), Human IFN-α Flex Set (catalog no. 560379), Human IFN-γ Flex Set (catalog no. 558269), Human TNF Flex Set (catalog no. 560112); all kits from BD Biosciences. The data was analyzed using the FCAP Array v3.0 software (BD Biosciences).
substance,measurement,setting,value
"5′-GAG CGmG CCA-3′ (GAGCNGCCA; 2'-O-methyl guanosine at position 5; 9mer oligonucleotide; modified_base (5)..(5) n can be any nucleotide, wherein the nucleotide is 2-O-methylated, preferably a 2-O-methylated guanosine) [Gm18, 9-mer 2′-O-methylated RNA oligonucleotide; position 5 is 2′-O-methylated guanosine (Gm); antagonist of TLR7 and 8]",release of IFNα in sera (ELISA),[1],strongly decreases the release
same,secretion of cytokine INF-a,[2],reduced secretion
same,secretion of cytokine INF-y,[2],reduced secretion
same,secretion of cytokine TNF,[2],reduced secretion

# From patent publication US20220296628A1, “RNA COMBINATIONS AND COMPOSITIONS WITH DECREASED IMMUNOSTIMULATORY PROPERTIES” (CureVac AG, priority 2019, published 2022)
